What is called EC50 is the concentration that produces a half-maximal response.

25 compounds from US11242335B2, “Fluorine-substituted indazole compounds and uses thereof” (SUNSHINE LAKE PHARMA CO., LTD., priority 2017, dated 2022) can be followed below.

In this assay the target is T1, soluble guanylate cyclase (sGC) expressed by CHO-K1-Rat sGC monoclonal cell line (Rattus norvegicus, UniProt P19686+P20595).
T1 construct: expressed in transfected cells; host or cells: CHO-K1
T1 sequence (P19686 1-690): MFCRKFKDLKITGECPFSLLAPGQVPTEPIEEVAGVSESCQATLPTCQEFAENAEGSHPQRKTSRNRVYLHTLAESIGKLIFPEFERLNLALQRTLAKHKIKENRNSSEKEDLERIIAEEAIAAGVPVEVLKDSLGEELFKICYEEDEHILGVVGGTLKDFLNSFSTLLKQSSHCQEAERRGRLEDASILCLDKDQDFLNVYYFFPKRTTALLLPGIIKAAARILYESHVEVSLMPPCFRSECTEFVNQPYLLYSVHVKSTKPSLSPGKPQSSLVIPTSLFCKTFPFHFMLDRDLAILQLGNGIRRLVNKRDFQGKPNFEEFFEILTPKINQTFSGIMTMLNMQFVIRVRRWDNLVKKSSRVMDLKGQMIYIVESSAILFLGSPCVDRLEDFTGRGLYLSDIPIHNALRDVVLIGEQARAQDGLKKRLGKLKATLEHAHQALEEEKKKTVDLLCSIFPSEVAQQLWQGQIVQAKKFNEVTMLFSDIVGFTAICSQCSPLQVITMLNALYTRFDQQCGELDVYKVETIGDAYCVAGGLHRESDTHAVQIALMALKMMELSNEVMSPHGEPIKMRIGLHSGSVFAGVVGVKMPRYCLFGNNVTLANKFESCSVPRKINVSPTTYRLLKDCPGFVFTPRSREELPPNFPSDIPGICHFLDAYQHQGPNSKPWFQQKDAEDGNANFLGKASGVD
T1 sequence (P20595 1-619): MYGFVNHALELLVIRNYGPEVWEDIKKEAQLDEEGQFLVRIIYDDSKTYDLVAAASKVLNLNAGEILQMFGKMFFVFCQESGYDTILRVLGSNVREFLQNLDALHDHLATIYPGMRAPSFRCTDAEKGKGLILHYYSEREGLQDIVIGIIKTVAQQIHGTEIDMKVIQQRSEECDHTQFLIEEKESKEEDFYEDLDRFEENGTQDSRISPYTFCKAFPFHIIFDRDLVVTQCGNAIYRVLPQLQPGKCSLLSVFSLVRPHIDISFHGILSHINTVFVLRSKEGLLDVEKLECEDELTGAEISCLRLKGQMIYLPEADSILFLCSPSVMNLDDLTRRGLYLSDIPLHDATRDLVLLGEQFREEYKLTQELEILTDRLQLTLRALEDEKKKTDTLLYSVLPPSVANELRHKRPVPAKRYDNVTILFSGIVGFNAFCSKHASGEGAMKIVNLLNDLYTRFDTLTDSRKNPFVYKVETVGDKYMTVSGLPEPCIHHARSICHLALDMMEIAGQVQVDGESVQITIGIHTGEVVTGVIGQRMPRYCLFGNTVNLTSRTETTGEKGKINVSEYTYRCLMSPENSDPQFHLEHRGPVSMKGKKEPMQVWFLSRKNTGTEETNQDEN
Briefly: Effect on recombinant guanylate cyclase reporter cell line (CHO-K1-Rat sGC, Cisbio cGMP HTRF). It counts as cell-based. The note with it: activating soluble guanylate cyclase. An excerpt: Transfection of Soluble Guanylate Cyclase (sGC) gene into CHO-K1 cells and selection of cells with stably and highly expressed sGC: Rat sGCα1 and Rat sGCβ1 Genes were synthesized, and then pcDNA3.1(+)-rat sGCα1 and pcDNA3.1/Hygro (+)-rat sGCβ1 plasmid were constructed; the plasmid was co-transfected into CHO-K1 cells, and a positive clone cell line stably expressing CHO-K1-Rat sGC was selected using the Cisbio cGMP HTRF assay kit.
The activity of the compound on the CHO-K1-Rat sGC monoclonal cell line was determined: The CHO-K1-Rat sGC monoclonal cell line was cultured, and used for test operation at degree of fusion of about 70% to 90%. The cells were resuspended in complete medium after TrypLE digestion; the cells were inoculated in a 384-well (low volume tissues culture treated) cell culture plate at a seeding density of 7500/well in 25 μL of complete medium and incubated at 37° C. in 5% CO2 atmosphere for 20 hours; the test compounds were dissolved and dilute with DMSO to give 10 concentration gradients (2× working concentration); 384-well cell culture plates were centrifugated (200 g) for 3 seconds by inversion at RT, medium was removed; The test compounds in each different concentration gradient and corresponding reagent were added into each cell well according to the detection process of Cisbio cGMP HTRF assay kit. The data were collected with Envision HTRF detector and the EC50 value of each compound in activating soluble guanylate cyclase was calculated.

With `Nc1nc(-c2nn(Cc3ccccc3F)c3cc(F)ccc23)nc(N)c1NC1CCOC1` (stereo not shown) [Example 9, 2-(6-fluoro-1-(2-fluorobenzyl)-1H-indazol-3-yl)-N^5-(tetrahydrofuran-3-yl) pyrimidine-4,5,6-triamine], the EC50 came to 680 nM.

Regarding `Nc1nc(-c2nn(Cc3ccccc3F)c3c(F)cccc23)nc(N)c1NC1CCOC1` (stereo not shown) [Example 12, 2-(7-fluoro-1-(2-fluorobenzyl)-1H-indazol-3-yl)-N^5-(tetrahydrofuran-3-yl)pyrimidine-4,5,6-triamine], the concentration giving a half-maximal response (EC50) was found to be 120 nM. Next, `Nc1nc(-c2nn(Cc3ccccc3F)c3c(F)cccc23)nc(N)c1N1CCOCC1` [Example 14, 2-(7-fluoro-1-(2-fluorobenzyl)-1H-indazol-3-yl)-5-morpholinopyrimidine-4,6-diamine]: 62 nM.

In the case of `Nc1nc(-c2nn(Cc3ccccc3F)c3c(F)cccc23)nc(N)c1NC(=O)C1CCCO1` (stereo not shown) [Example 16, N-(4,6-diamino-2-(7-fluoro-1-(2-fluorobenzyl)-1H-indazol-3-yl)pyrimidin-5-yl)tetrahydrofuran-2-carboxamide], the EC50 is 690 nM. As for `Nc1nc(-c2nn(Cc3ccccc3F)c3c(F)cccc23)nc(N)c1NC(=O)C1CCCCO1` (stereo not shown) [Example 17, N-(4,6-diamino-2-(7-fluoro-1-(2-fluorobenzyl)-1H-indazol-3-yl)pyrimidin-5-yl)tetrahydro-2H-pyran-2-carboxamide], the figure is 420 nM; as for `Oc1nc(-c2nn(Cc3ccccc3F)c3c(F)cccc23)ncc1F` [Example 25, 5-fluoro-2-(7-fluoro-1-(2-fluorobenzyl)-1H-indazol-3-yl)pyrimidin-4-ol], 860 nM; as for `CC(C)(O)CNc1c(N)nc(-c2nn(Cc3ccccc3F)c3c(F)cccc23)nc1N` [Example 26, 1-((4,6-diamino-2-(7-fluoro-1-(2-fluorobenzyl)-1H-indazol-3-yl)pyrimidin-5-yl)amino)-2-methylpropan-2-ol], 100 nM. Next, `CC(Nc1c(N)nc(-c2nn(Cc3ccccc3F)c3c(F)cccc23)nc1N)C1CCOCC1` (stereo not shown) [Example 28, 2-(7-fluoro-1-(2-fluorobenzyl)-1H-indazol-3-yl)-N^5-(1-(tetrahydro-2H-pyran-4-yl)ethyl)pyrimidine-4,5,6-triamine]: 94 nM; `Nc1nc(-c2nn(Cc3ccccc3F)c3c(F)cccc23)ncc1C(=O)O` [Example 30, 4-amino-2-(7-fluoro-1-(2-fluorobenzyl)-1H-indazol-3-yl)pyrimidine-5-carboxylic acid]: 820 nM. Next, `Nc1nc(-c2nn(Cc3ccccc3F)c3c(F)cccc23)ncc1C(=O)NC1CC1` [Example 31, 4-amino-N-cyclopropyl-2-(7-fluoro-1-(2-fluorobenzyl)-1H-indazol-3-yl) pyrimidine-5-carboxamide]: 35 nM; `CNC(=O)c1cnc(-c2nn(Cc3ccccc3F)c3c(F)cccc23)nc1N` [Example 32, 4-amino-2-(7-fluoro-1-(2-fluorobenzyl)-1H-indazol-3-yl)-N-methyl pyrimidine-5-carboxamide]: 89 nM; `COC(=O)N(C)c1c(N)nc(-c2nn(Cc3cncnc3)c3c(F)cccc23)nc1N` [Example 34, methyl (4,6-diamino-2-(7-fluoro-1-(pyrimidin-5-ylmethyl)-1H-indazol-3-yl)pyrimidin-5-yl)(methyl)carbamate]: 810 nM.

Regarding `Nc1nc(-c2nn(Cc3ccccc3F)c3c(F)cccc23)nc(N)c1C(=O)O` [Example 42, 4,6-diamino-2-(7-fluoro-1-(2-fluorobenzyl)-1H-indazol-3-yl)pyrimidine-5-carboxylic acid], the EC50 amounted to 760 nM. As for `Nc1nc(-c2nn(Cc3ccccc3F)c3c(F)cccc23)nc(N)c1C(=O)NC1CC1` [Example 44, 4,6-diamino-N-cyclopropyl-2-(7-fluoro-1-(2-fluorobenzyl)-1H-indazol-3-yl) pyrimidine-5-carboxamide], the figure is 340 nM; as for `CN(C)C(=O)c1cnc(-c2nn(Cc3ccccc3F)c3c(F)cccc23)nc1N` [Example 45, 4-amino-2-(7-fluoro-1-(2-fluorobenzyl)-1H-indazol-3-yl)-N,N-dimethyl pyrimidine-5-carboxamide], 160 nM.

In the case of `Nc1nc(-c2nn(Cc3ccccc3F)c3c(F)cccc23)ncc1C(=O)N1CCOCC1` [Example 46, (4-amino-2-(7-fluoro-1-(2-fluorobenzyl)-1H-indazol-3-yl)pyrimidin-5-yl) (morpholino)methanone], the EC50 was 200 nM.

As to `Nc1nc(-c2nn(Cc3ccccc3F)c3c(F)cccc23)ncc1C(=O)N1CCCC1` [Example 47, (4-amino-2-(7-fluoro-1-(2-fluorobenzyl)-1H-indazol-3-yl)pyrimidin-5-yl) (pyrrolidin-1-yl)methanone], the EC50 is 120 nM. Next, `Nc1nc(-c2nn(Cc3ccccc3F)c3c(F)cccc23)ncc1C(=O)NCCO` [Example 49, 4-amino-2-(7-fluoro-1-(2-fluorobenzyl)-1H-indazol-3-yl)-N-(2-hydroxyethyl)pyrimidine-5-carboxamide]: 270 nM. Next, `Nc1nc(-c2nn(Cc3ccccc3F)c3c(F)cccc23)ncc1C(=O)N1CCS(=O)(=O)CC1` [Example 51, (4-amino-2-(7-fluoro-1-(2-fluorobenzyl)-1H-indazol-3-yl)pyrimidin-5-yl) (1,1-dioxidothiomorpholino)methanone]: 420 nM; `Nc1nc(-c2nn(Cc3ccccc3F)c3c(F)cccc23)ncc1C(=O)N1CCC(F)(F)CC1` [Example 52, (4-amino-2-(7-fluoro-1-(2-fluorobenzyl)-1H-indazol-3-yl)pyrimidin-5-yl) (4,4-difluoropiperidin-1-yl)methanone]: 110 nM.

Regarding `CN1CCN(C(=O)c2cnc(-c3nn(Cc4ccccc4F)c4c(F)cccc34)nc2N)CC1` [Example 53, (4-amino-2-(7-fluoro-1-(2-fluorobenzyl)-1H-indazol-3-yl)pyrimidin-5-yl) (4-methylpiperazin-1-yl)methanone], the half-maximal effective concentration (EC50) was found to be 390 nM. As to `Nc1nc(-c2nn(Cc3ccccc3F)c3c(F)cccc23)ncc1C(=O)N1CC(O)C1` [Example 54, (4-amino-2-(7-fluoro-1-(2-fluorobenzyl)-1H-indazol-3-yl)pyrimidin-5-yl) (3-hydroxyazetidin-1-yl)methanone], the EC50 amounted to 140 nM.

Take `CNC(=O)c1cnc(-c2nn(Cc3ccccc3F)c3c(F)cccc23)nc1` [Example 56, 2-(7-fluoro-1-(2-fluorobenzyl)-1H-indazol-3-yl)-N-methylpyrimidine-5-carboxamide]: the EC50 is 340 nM.

Consider `O=C(NC1CC1)c1cnc(-c2nn(Cc3ccccc3F)c3c(F)cccc23)nc1` [Example 57, N-cyclopropyl-2-(7-fluoro-1-(2-fluorobenzyl)-1H-indazol-3-yl)pyrimidine-5-carboxamide], for which the EC50 is 79 nM. As for `OCCCNc1nc(-c2nn(Cc3ccccc3F)c3c(F)cccc23)ncc1F` [Example 59, 3-((5-fluoro-2-(7-fluoro-1-(2-fluorobenzyl)-1H-indazol-3-yl)pyrimidin-4-yl)amino)propan-1-ol], the figure is 58 nM.
